Results from ChEMBL document CHEMBL1201862, “PubChem BioAssay data set” (2004).
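Step 1: Grow cells in 96-well plates. Step 2: Expose to compound for 48 hours at 5 concentrations. Step 3: Interpolate endpoints linearly; if unreached, use highest concentration. Here, GI50 denotes the concentration required for 50% inhibition of growth.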 Activity calls are given as the source filed them. Cut-off read from the data, not from the text of the source: active = GI50 up to about 1.1 µM and inactive = higher.

Assays:
Test in all cases: NCI anticancer screen, dose series, 48 h
ACHN = tested on: ACHN
RXF 631 = tested on: RXF 631
U-251 = tested on: U-251
CCRF-CEM = tested on: CCRF-CEM
DMS-273 = tested on: DMS-273
RPMI-8226 = tested on: RPMI-8226
K562 = tested on: K562
SNB-75 = tested on: SNB-75
OVCAR-4 = tested on: OVCAR-4
786-0 = tested on: 786-0
KM-20L2 = tested on: KM-20L2
MOLT-4 = tested on: MOLT-4
HL-60 = tested on: HL-60
NCI-H23 = tested on: NCI-H23
XF498 = tested on: XF498
UACC-62 = tested on: UACC-62
SK-MEL-28 = tested on: SK-MEL-28
HCT-15 = tested on: HCT-15
DLD-1 = tested on: DLD-1
M19-MEL = tested on: M19-MEL
LOX IMVI = tested on: LOX IMVI
IGROV-1 = tested on: IGROV-1
OVCAR-3 = tested on: OVCAR-3
TK-10 = tested on: TK-10
DMS-114 = tested on: DMS-114
A498 = tested on: A498
SNB-19 = tested on: SNB-19
RXF 393 = tested on: RXF 393
SF-539 = tested on: SF-539
SK-MEL-2 = tested on: SK-MEL-2
A549 = tested on: A549
SR = tested on: SR
HT-29 = tested on: HT-29
SN12C = tested on: SN12C
NCI-H460 = tested on: NCI-H460
SK-MEL-5 = tested on: SK-MEL-5
HCT-116 = tested on: HCT-116
NCI-H226 = tested on: NCI-H226
LXFL 529 = tested on: LXFL 529
M14 = tested on: M14
SW-620 = tested on: SW-620
COLO 205 = tested on: COLO 205
HOP-62 = tested on: HOP-62
EKVX = tested on: EKVX
SF-268 = tested on: SF-268
Malme-3M = tested on: Malme-3M
HCC 2998 = tested on: HCC 2998
UO-31 = tested on: UO-31

Q: For COc1cc2c(cc1O)CCN[C@@]21CS[C@H]2c3c(OC(C)=O)c(C)c4c(c3C(COC1=O)N1C2C2NC(Cc3cc(C)c(OC)c(O)c32)[C@@H]1C#N)OCO4 (stereo partly drawn), which GI50 (ACHN) is on record?
A: < 10 nM (active)

Q: What about the GI50 (RXF 631) of the same compound?
A: < 10 nM (active)

Q: What about the GI50 (U-251) of the same compound?
A: < 10 nM (active)

Q: What about the GI50 (CCRF-CEM) of the same compound?
A: < 10 nM (active)

Q: And the GI50 (DMS-273)?
A: < 10 nM (active)

Q: And the GI50 (RPMI-8226)?
A: < 10 nM (active)

Q: What about the GI50 (K562) of the same compound?
A: < 10 nM (active)

Q: And the GI50 (SNB-75)?
A: < 10 nM (active)

Q: What about the GI50 (OVCAR-4) of the same compound?
A: < 10 nM (active)

Q: And the GI50 (786-0)?
A: < 10 nM (active)

Q: And the GI50 (KM-20L2)?
A: < 10 nM (active)

Q: What about the GI50 (MOLT-4) of the same compound?
A: < 10 nM (active)

Q: And the GI50 (HL-60)?
A: < 10 nM (active)

Q: And the GI50 (NCI-H23)?
A: < 10 nM (active)

Q: What about the GI50 (XF498) of the same compound?
A: < 10 nM (active)

Q: What about the GI50 (UACC-62) of the same compound?
A: < 10 nM (active)

Q: And the GI50 (SK-MEL-28)?
A: < 10 nM (active)

Q: And the GI50 (HCT-15)?
A: < 10 nM

Q: What about the GI50 (DLD-1) of the same compound?
A: < 10 nM (active)

Q: What about the GI50 (M19-MEL) of the same compound?
A: < 10 nM (active)

Q: And the GI50 (LOX IMVI)?
A: < 10 nM (active)

Q: What about the GI50 (IGROV-1) of the same compound?
A: < 10 nM (active)

Q: And the GI50 (OVCAR-3)?
A: < 10 nM (active)

Q: And the GI50 (TK-10)?
A: < 10 nM (active)

Q: And the GI50 (DMS-114)?
A: < 10 nM (active)

Q: What about the GI50 (A498) of the same compound?
A: < 10 nM (active)

Q: What about the GI50 (SNB-19) of the same compound?
A: < 10 nM (active)

Q: And the GI50 (RXF 393)?
A: < 10 nM (active)

Q: And the GI50 (SF-539)?
A: < 10 nM (active)

Q: What about the GI50 (SK-MEL-2) of the same compound?
A: < 10 nM (active)

Q: What about the GI50 (A549) of the same compound?
A: < 10 nM (active)

Q: And the GI50 (SR)?
A: < 10 nM (active)

Q: What about the GI50 (HT-29) of the same compound?
A: < 10 nM (active)

Q: And the GI50 (SN12C)?
A: < 10 nM (active)

Q: What about the GI50 (NCI-H460) of the same compound?
A: < 10 nM (active)

Q: What about the GI50 (SK-MEL-5) of the same compound?
A: < 10 nM (active)

Q: And the GI50 (HCT-116)?
A: < 10 nM (active)

Q: And the GI50 (NCI-H226)?
A: < 10 nM (active)

Q: And the GI50 (LXFL 529)?
A: < 10 nM (active)

Q: And the GI50 (M14)?
A: < 10 nM (active)

Q: And the GI50 (SW-620)?
A: < 10 nM (active)

Q: And the GI50 (COLO 205)?
A: < 10 nM (active)

Q: What about the GI50 (HOP-62) of the same compound?
A: < 10 nM (active)

Q: What about the GI50 (EKVX) of the same compound?
A: < 10 nM (active)

Q: What about the GI50 (SF-268) of the same compound?
A: < 10 nM (active)

Q: What about the GI50 (Malme-3M) of the same compound?
A: < 10 nM (active)

Q: And the GI50 (HCC 2998)?
A: < 10 nM (active)

Q: What about the GI50 (UO-31) of the same compound?
A: < 10 nM (active)
